Reference: the Biogen ADME set (Fang et al. 2023)
≈ marks a conversion by molar mass, not a printed value.

Details: for aqueous solubility: pH 6.8

MDR1-MDCK efflux ratio | intrinsic clearance, human liver microsomes [mL/min/kg] | intrinsic clearance, rat liver microsomes [mL/min/kg] | aqueous solubility [µg/mL] | fraction unbound, human plasma | fraction unbound, rat plasma | Compound
– | 45 | 184 | 2.33 (≈ 4.44 µM) | – | – | CCN(C(=O)CO)[C@H]1CN(/C(=N\C#N)Nc2cccc(OC(F)F)c2)N=C1c1ccc(Cl)c(Cl)c1
– | – | – | 5.67 (≈ 28 µM) | – | – | Cc1nnnn1CCCc1ccccc1
1.11 | 114 | 929 | 49 (≈ 133 µM) | – | – | Cc1ccccc1C(=O)N1CCC[C@@H]1Cn1nnn(-c2cccs2)c1=O
– | 46 | 506 | 55 (≈ 167 µM) | – | – | CC(=O)N1CCCC(C(=O)N2CCc3c(cccc3C(C)C)C2)C1 (stereo not given)
28.3 | ≤ 4.74 | 366 | 57.5 (≈ 160 µM) | – | – | CCCCc1nc2cc(/C=C/C(=O)NO)ccc2n1CCN(CC)CC
2.67 | 13.8 | 318 | 32.7 (≈ 116 µM) | – | – | Cc1cnn(CC2CC2)c1NC(=O)/C=C/c1ccccc1
5.94 | 16.3 | 867 | 83.4 (≈ 210 µM) | – | – | COc1ccc(CCC(=O)N2CCN(C(=O)c3cc4n(n3)CCCC4)CC2)cc1
1.12 | 16.5 | 156 | 63.3 (≈ 199 µM) | – | – | Cc1ccnc(NC(=O)CN(C)C(=O)c2ccc(Cl)cc2)c1
2.69 | 27.3 | 374 | 33.2 (≈ 95 µM) | – | – | Cn1cc(CN2CCN(c3ccccc3O)CC2)c(-c2ccncc2)n1
0.484 | ≤ 4.74 | 393 | 40.8 (≈ 175 µM) | – | – | CN(CC(=O)Nc1ccncc1)C1CCCC1

The next lines start with the compound.

Compound | MDR1-MDCK efflux ratio | intrinsic clearance, human liver microsomes [mL/min/kg] | intrinsic clearance, rat liver microsomes [mL/min/kg] | aqueous solubility [µg/mL] | fraction unbound, human plasma | fraction unbound, rat plasma
COc1cc2cc3c(nc2cc1OC)OCCN(C1CCCCC1)C3 | 1.3 | 33.2 | 1680 | – | – | –
O=C(Nc1ccccc1)Nc1ccccc1 | – | 16 | 91.4 | 3.9 (≈ 18.4 µM) | – | –
CSC1(CNc2cc(C)nc(C)n2)CCOCC1 | 1.42 | ≤ 4.74 | 76.1 | – | – | –
Cn1c(=O)n(C2CCCC2)c(=O)c2c(F)cccc21 | 0.69 | 23.3 | 415 | 26 (≈ 99 µM) | – | –
O=C(NCC1(N2CCCCC2)CCCC1)c1cnn[nH]1 | 31.7 | ≤ 4.74 | ≤ 10.7 | – | – | –
Cc1cnc(-c2nc(NCc3cccnc3)ncc2-c2cc(C)no2)cn1 | – | 17.1 | 261 | – | – | –
COc1nc2sc(C(=O)NC3CC3)c(N)c2c(C)c1Cl | – | 9.77 | 133 | – | 0.0176 | 0.0283
COc1ccc(CNCc2cccc3ccccc23)cc1 | 0.45 | 194 | 620 | 47.2 (≈ 170 µM) | – | –
N#Cc1c(N)nc(-c2ccccc2)nc1C(F)(F)F | – | – | – | 0.19 (≈ 0.719 µM) | – | –
O=C(C1CCC(O)CC1)N1CCCN(c2ccc(F)cc2)CC1 (stereo not given) | 4.68 | 11.9 | 206 | 80.7 (≈ 252 µM) | – | –
O=C1C(N2CCC(n3c(=O)[nH]c4ccccc43)CC2)CCN1c1ccccc1 (stereo not given) | – | 4.86 | 139 | 62 (≈ 165 µM) | – | –
NC(=O)c1cnc(N2CCc3[nH]nc(C(F)(F)F)c3C2)c(Cl)c1 | 7.33 | ≤ 4.74 | – | – | 0.0968 | –
CN1CCC[C@@H]1CCO[C@](C)(c1ccccc1)c1ccc(Cl)cc1 | – | 24.8 | 1090 | 98.7 (≈ 287 µM) | – | –
COCc1ccc(SCC(=O)NC2CCCC2)cc1 | 0.714 | 33.3 | 2550 | – | – | –
COc1cc(-c2cn(C3CCc4c(F)cccc4N(CC(F)(F)F)C3=O)nn2)ccc1-n1cnc(C)c1 (stereo not given) | – | 26.1 | 49.2 | – | – | –
CCn1nc(C2CCCC2)nc1-c1ccncc1 | 0.716 | 24.6 | 370 | 27 (≈ 111 µM) | – | –
O=C(Nc1ccc(COC2CCCC2)cc1)N1CCC(CO)CC1 | 5.55 | ≤ 4.74 | 329 | – | – | –
Cc1ccc(-c2nc(-c3ccncc3)n[nH]2)cc1 | – | 26.9 | 269 | 20 (≈ 84.7 µM) | – | –
